{
  "source": "paper PMC2698043",
  "about": "(Journal of medicinal chemistry, 2009)",
  "key": {"human PNP [1]": {"target": "T1, human PNP (Homo sapiens, UniProt P00491)", "T1 sequence (P00491 whole entry)": "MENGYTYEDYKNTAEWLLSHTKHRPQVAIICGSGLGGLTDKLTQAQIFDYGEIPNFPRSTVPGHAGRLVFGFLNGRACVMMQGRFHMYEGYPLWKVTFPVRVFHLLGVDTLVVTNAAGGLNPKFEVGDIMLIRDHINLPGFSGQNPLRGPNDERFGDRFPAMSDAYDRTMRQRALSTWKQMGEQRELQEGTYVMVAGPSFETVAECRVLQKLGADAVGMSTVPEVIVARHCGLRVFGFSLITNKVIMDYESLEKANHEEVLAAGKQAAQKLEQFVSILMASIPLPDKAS", "test": "biochemical"}, "human PNP [2]": {"target": "T1, human PNP"}, "blood PNP": {"target": "blood PNP (Mus musculus, UniProt P23492)", "sequence (P23492 whole entry)": "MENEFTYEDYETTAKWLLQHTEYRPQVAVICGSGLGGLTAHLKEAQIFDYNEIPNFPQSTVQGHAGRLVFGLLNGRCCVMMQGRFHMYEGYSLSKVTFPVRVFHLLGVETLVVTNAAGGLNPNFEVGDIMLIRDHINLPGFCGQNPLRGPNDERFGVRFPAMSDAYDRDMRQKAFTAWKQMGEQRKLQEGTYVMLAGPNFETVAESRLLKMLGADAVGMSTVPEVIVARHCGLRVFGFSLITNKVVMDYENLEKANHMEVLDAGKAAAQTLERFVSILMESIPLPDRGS", "details": "mice"}},
  "data": [
    {"smiles": "Nc1nc2c(CNC(CO)CO)c[nH]c2c(=O)[nH]1", "note": "[Compound 8, 2-Amino-7-{[(1,3-dihydroxypropan-2-yl)amino]methyl}-3,5-dihydro-4H-pyrrolo[3,2-d]pyrimidin-4-one]", "values": [
      {"measurement": "Kd", "setting": "human PNP [1]", "result": 2.1, "unit": "pM"}
    ]},
    {"smiles": "Nc1nc2c(CN[C@H](CO)[C@H](O)CO)c[nH]c2c(=O)[nH]1", "note": "[Compound 9, 2-Amino-7-({[(2R,3S)-1,3,4-trihydroxybutan-2-yl]amino}methyl)-3,5-dihydro-4Hpyrrolo[3,2-d]pyrimidin-4-one]", "values": [
      {"measurement": "times more active inhibitor than 9-deazahypoxanthine analogue 11", "setting": "human PNP [2]", "result": "2 – 3 times"}
    ]},
    {"smiles": "O=c1[nH]cnc2c(CNC(CO)CO)c[nH]c12", "note": "[Compound 10]", "values": [
      {"measurement": "time to complete inhibition of PNP catalytic activity", "setting": "blood PNP; single 50 nmol dose, i.p. injection", "result": "≤ 20", "unit": "min"},
      {"measurement": "inhibition of blood PNP catalytic activity", "setting": "blood PNP; single oral dose, for a period of 25 days", "result": "> 50", "unit": "%"},
      {"measurement": "Kd", "setting": "human PNP [1]", "result": 5.2, "unit": "pM"}
    ]}
  ]
}
